What was measured:
[1] = set-up: method as in ref 11 (Al Omari et al. 2007); conditions: UV exposure for 15 min; ref 11 (Al Omari et al. 2007); cited from earlier work
[2] = assay type: in vivo; conditions: rats, 25 mg/kg topical, 24 h monitoring
Procedure: In vivo pharmacokinetic study of MTK-loaded nanocrystal preparation was carried out in the healthy rats, after approval from Institutional Animal Care and Use Committee (IACUC) of Dankook University (Cheonan, Korea) (DKU-19-032, 8th October 2019). Six-week-old male Sprague-Dawley rats (SD rats, 250 ± 20 g) obtained from Samtako (Kyungki-do, Korea) were acclimated for at least 3 days, with free access to tap water and standardized chow. The rats were then divided into two groups (n = 6 per each group) and the hair on the dorsal region was removed by hair clippers without damaging the skin, prior to topical application. […] To avoid the drying of the nanocrystal or conventional hydrogels, a thin film made from polyurethane and acrylamide (Tegaderm®, 10 × 12 cm) was attached onto the application site. At predetermined time intervals (0, 0.5, 1, 2, 3, 4, 5, 8, 12, and 24 h), the blood samples (about 0.2 mL) were withdrawn from the submandibular vein using 28 G heparinized syringe. At 6 h post-administration, rats were allowed to freely access to water and standardized chow. During the experimental period (24 h), individual rats were monitored for their changes in skin and fur, behavior pattern, morbidity, and mortality. […] The drug concentration in the plasma was determined by the high-performance liquid chromatography and tandem mass spectrometry (LC–MS/MS) method described below.

[3] = In vivo pharmacokinetics after topical application to dorsal skin; conditions: male, Sprague-Dawley, rat, plasma, both hydrogel groups, rats, topical 25 mg/kg
Procedure: In vivo pharmacokinetic study of MTK-loaded nanocrystal preparation was carried out in the healthy rats, after approval from Institutional Animal Care and Use Committee (IACUC) of Dankook University (Cheonan, Korea) (DKU-19-032, 8th October 2019). Six-week-old male Sprague-Dawley rats (SD rats, 250 ± 20 g) obtained from Samtako (Kyungki-do, Korea) were acclimated for at least 3 days, with free access to tap water and standardized chow. The rats were then divided into two groups (n = 6 per each group) and the hair on the dorsal region was removed by hair clippers without damaging the skin, prior to topical application. […] During the experimental period (24 h), individual rats were monitored for their changes in skin and fur, behavior pattern, morbidity, and mortality. […] The drug concentration in the plasma was determined by the high-performance liquid chromatography and tandem mass spectrometry (LC–MS/MS) method described below.
Briefly, 20 μL of thawed rat plasma was mixed with 500 μL of the extraction solution (25% (v/v) of dichloromethane and 75% (v/v) of ethyl acetate), including zafirlukast (the internal standard, IS, 60 ng/mL) and vortexed for 60 s. […] Then, the residue was reconstituted with 100 μL of methanol and the final solution was analyzed through the LC-MS/MS system, composed of Nexera X2 UHPLC and LCMS-8050 mass spectrometer (Shimadzu, Tokyo, Japan). […]

[4] = oral, rats and mice, 12 months; cited from earlier work
[5] = set-up: method as in ref 25 (Lai et al.); conditions: photo-stability; ref 25 (Lai et al.); cited from earlier work

Structure (SMILES)	drug content in the methanolic solution [1] [%]	adverse effects following single topical administration [2]	concentration at 5 h ([3]; 5 h post-dosing) [ng/mL]	concentration at 12 h ([3]; 12 h post-dosing, read-out: drug concentration in the plasma) [ng/mL]	NOAEL [4] [mg/kg]	half-life with nanosuspension as compared to drug methanolic solution [5] [fold]
CC(C)(O)c1ccccc1CC[C@@H](SCC1(CC(=O)O)CC1)c1cccc(/C=C/c2ccc3ccc(Cl)cc3n2)c1 [MTK, Montelukast]	70	no marked adverse effects	2 to 6	< 1	50	–
CC1=C(/C=C/C(C)=C/C=C/C(C)=C/C(=O)O)C(C)(C)CCC1 [tretinoin]	–	–	–	–	–	7.5

Reference: article PMC7022715 (Pharmaceutics, 2019)
